Assay results published in patent US20170275330A1, “POLYMORPHIC FORMS OF AN OXYSTEROL AND METHODS OF MAKING THEM” (Warsaw Orthopedic, Inc., priority 2016, published 2017).
≈ marks a conversion by molar mass, not a printed value.

Key:
[1] = X-ray powder diffraction (XRPD) identification of the crystal form; type: physicochemical; settings: OXY133 sample, method/solvent system
Source text: The many crystalline forms obtained by subjecting a slurry of OXY133 to different conditions of re-slurrying, recrystallizing from different solvent systems at different temperatures may be identified by many analytical methods, for example, XRPD, HPLC-CAD, DSC-TGA and others known in the art. In certain embodiments, the OXY133 polymorphs may be characterized, at least in part, by X-ray Powder Diffraction (XRPD). In particular, crystalline solids produce a distinctive diffraction pattern of peaks, represented in what is referred to as a diffractogram. The peak assignments for a given crystalline material, for example, degree 2θ values, may vary slightly, depending on the instrumentation used to obtain the diffractogram and certain other factors, for example, sample preparation. Nevertheless, these variations should not be more than +/−0.2 degrees 2θ and the relative spacing between the peaks in the diffractogram will always be the same, regardless of the instrumentation used or the method of sample preparation, and the like.
The equipment utilized to collect the XRPD patterns depicted in FIGS. 2A-13B was a Bruker D8 Advance diffractometer using Cu radiation (40 kV, 25 mA) with a divergence slit of 0.3° (0.6 mm), wherein variable slits must be operated in fixed mode. The axial Soller slits, primary and secondary were each set at 2.5°. The anti-scatter slit was set at 0.3° (0.6 mm). The secondary monochromator anti-scatter slit was set at 1 mm and the detector slit at 0.1 mm. If a secondary monochromator is not used, then a suitable […] must be used, namely a Ni filter for Cu radiation. The linear detector LYNXEYE was set at 30 detector opening with the angle scanned from 2 to 45° 2Θ.

[2] = Karl-Fisher (KF) water determination of isolated solid; type: physicochemical; settings: for KF (water content determined by Karl Fischer water determination method): OXY133 sample, method/solvent system, processing point, temperature and time as in the table row; for KF (Wt %) water content of isolated solid: solid isolated from acetone/water slurry at 0, 10 or 25° C.
Source text: Further, Table 8 below is a list of OXY133 polymorphs Forms A, B, C, D, E, F, G, H and I identified by a high performance liquid chromatography (HPLC) followed by charged aerosol detector (CAD) method. Table 4 also lists the starting products, the solvent system including solvent and anti-solvent, the temperature at which a polymorph was formed, the water content of the polymorph as determined by the Karl-Fisher (KF) method of water determination, and where available the yield and purity of the resulting polymorph.

[3] = physchem; settings: acetone, organic solvent or mixture, thermodynamic from solid
[4] = Solubility of OXY133 Form B in organic solvents; settings: ambient temperature of about 20° C.
[5] = for stability in the acetone/water solvent system: acetone/water slurry
[6] = DSC/TGA (differential scanning calorimetry and thermo-gravimetric analysis); type: physicochemical; settings: isolated solid of Example 6
Method: Differential scanning calorimetry (DSC) and thermo-gravimetric analysis (TGA) were also collected for some of the OXY133 polymorphs. The equipment utilized to collect the DSC/TGA data was a Mettler Toledo DSC 2 equipped with an aluminum 40 μL crimped pan with a pin hole and the ramp rate was 10° C./min. DSC/TGA thermograms identifying several OXY133 polymorphs are illustrated in FIGS. 20-25.

[7] = Stability of the crystal form on drying in a vacuum oven; type: physicochemical; settings: drying at temperatures above about 20° C. to about 30° C.
Method: 2.0 g anhydrous OXY133 was added to 10 mL isopropanol in a 100 mL polyblock reactor. The mixture was heated to 30° C. and then stirred at 30° C. for 45 minutes until the solids were dissolved completely. Acceptable heating temperatures ranged from 25° C. to 35° C. A polish filtration step can be added after dissolving the anhydrous OXY133. The mixture of anhydrous OXY133 and isopropanol was then cooled to 5° C. 20 mL of water was then added to the cooled mixture over 120 minutes at 5° C., resulting in the formation of a precipitate approximately one third of the way through the addition of water. The water addition can also be done in temperature ranges from about 0° C. to about 20° C. with no significant effect on the crystal structure. The resulting mixture of OXY133, isopropanol and water was then stirred at 5° C. for 18 hours. However, it is recommended that the resulting mixture could be mixed for at least 2 hours at 5° C. after the water addition was complete to ensure that all solids were precipitated from the solution. A white solid was collected by rapidly filtering the mixture and then washing the solid with 2.0 mL of an isopropanol:water mixture in a ratio of 1:2 v/v. The filtered and washed solids were then dried in a vacuum oven at 20′C. Acceptable temperatures for drying can range from about 20° C. to about 30′C.

[8] = Table 8, processing point (slurry/solid/after drying), temperature and time as in the table row
[9] = Table 9, processing point, temperature

Row | Structure (SMILES) | Crystal Form (XRPD) [1, 8] | Crystal Form (XRPD) [1, 9] | KF (water content determined by Karl Fischer water determination method) [2] [%] | KF (Wt %) water content of isolated solid [2] [Wt %] | further results
1 | CCCCCC[C@](C)(O)[C@H]1CC[C@H]2[C@@H]3C[C@H](O)[C@H]4C[C@@H](O)CC[C@]4(C)[C@H]3CC[C@@]21C [Form 2891-8-3] | Form A | Form A | 3.25 | 3.25 | 
2 | CCCCCC[C@](C)(O)[C@H]1CC[C@H]2[C@@H]3C[C@H](O)[C@H]4C[C@@H](O)CC[C@]4(C)[C@H]3CC[C@@]21C [Form 2891-9-3] | Form A | Form A | 3.83 | 3.83 | 
3 | CCCCCC[C@](C)(O)[C@H]1CC[C@H]2[C@@H]3C[C@H](O)[C@H]4C[C@@H](O)CC[C@]4(C)[C@H]3CC[C@@]21C [Form 2891-10-3] | Form A | Form A | 4.02 | 4.02 | 
4 | CCCCCC[C@](C)(O)[C@H]1CC[C@H]2[C@@H]3C[C@H](O)[C@H]4C[C@@H](O)CC[C@]4(C)[C@H]3CC[C@@]21C [Form B] |  |  |  |  | solubility ([3]; 20 °C): ~10 mg/mL (≈ 23.8 mM); solubility ([3]; 56 °C): ~80 mg/mL (≈ 190 mM); solubility in isopropanol (IPA) ([4]; isopropanol): good; solubility in tetrahydrofuran ([4]; tetrahydrofuran): good
5 | CCCCCC[C@](C)(O)[C@H]1CC[C@H]2[C@@H]3C[C@H](O)[C@H]4C[C@@H](O)CC[C@]4(C)[C@H]3CC[C@@]21C [Form C] |  |  |  |  | stability in the acetone/water solvent system [5]: fairly stable; conversion from Form C to Form A or Form B ([5]; slurry stirred at about 20° C. in acetone/water): no conversion
6 | CCCCCC[C@](C)(O)[C@H]1CC[C@H]2[C@@H]3C[C@H](O)[C@H]4C[C@@H](O)CC[C@]4(C)[C@H]3CC[C@@]21C [Form F] |  |  |  |  | stability in the acetone/water solvent system [5]: somewhat stable; conversion to any other polymorph forms ([5]; acetone/water system, stirred at about 20° C. or about 5° C.): would not convert
7 | CCCCCC[C@](C)(O)[C@H]1CC[C@H]2[C@@H]3C[C@H](O)[C@H]4C[C@@H](O)CC[C@]4(C)[C@H]3CC[C@@]21C.O [OXY133 Monohydrate, (3S,5S,6S,8R,9S,10R,13S,14S,17S)-17-((S)-2-hydroxyoctan-2-yl)-10,13-dimethylhexadecahydro-1H-cyclopenta[a]phenanthrene-3,6-diol, monohydrate] |  |  |  |  | DSC/TGA [6]: 4.76%; crystal form stability on drying [7]: slow conversion; KF water content ([2]; isolated solid of Example 6 (IPA/water 1:2, 5° C., dried at 20° C.)): 4.07%
